Where two headings read alike, the source gives them in different places. Blank lines part the entries; values can stand above or below the compound they belong to.
Columns and labels:
mABHD3 = target: T1, mABHD3 (Mus musculus, UniProt Q91ZH7); test: Gel-based competitive ABPP, recombinant enzyme in transfected HEK293T cell lysates; assay type: biochemical
T1 construct: expressed in transfected cells; host or cells: HEK293T, transient transfection, pCMV-Sport6; lysate used in vitro
T1 sequence (Q91ZH7 1-411): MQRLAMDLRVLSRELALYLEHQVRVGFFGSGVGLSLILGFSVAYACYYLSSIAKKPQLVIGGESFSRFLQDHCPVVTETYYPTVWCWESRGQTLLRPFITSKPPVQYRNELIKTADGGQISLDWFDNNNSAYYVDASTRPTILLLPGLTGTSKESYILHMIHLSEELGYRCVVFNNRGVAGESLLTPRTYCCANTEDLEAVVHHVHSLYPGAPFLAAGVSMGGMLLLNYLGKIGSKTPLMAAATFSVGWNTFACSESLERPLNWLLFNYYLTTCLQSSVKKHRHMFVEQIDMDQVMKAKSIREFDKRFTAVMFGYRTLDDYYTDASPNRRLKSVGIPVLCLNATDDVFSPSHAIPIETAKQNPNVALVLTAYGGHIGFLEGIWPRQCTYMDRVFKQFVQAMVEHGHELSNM
Method: HEK293T cells were seeded at 2×10^5 per well on 6 well plates and grown for 48 h. They were then transfected with mABHD3 (pCMV-Sport6), hABHD4 (pcDNA3.1/myc-his), hPPT1 (pCMV6-XL5), or hPPT1 S115A (pCMV6-XL5), by incubating 0.5 μg of DNA with 3 μL of PEI MAX (1 mg/mL, Polysciences, Inc) in serum-free DMEM for 30 min, then adding them to cells. After 48 h cells were either treated with compound in situ, as described above, or harvested for in vitro studies. The […] PPT1 mutation was introduced using QuikChange II Site Directed Mutagenesis Kit (Agilent) with the following primers: […]
Human ABHD3 and ABHD4 were recombinantly expressed by transient transfection in HEK293T cells, and the cell lysates were combined to provide a convenient assay for monitor inhibition of both enzymes by gel-based ABPP (see FIG. 8A).

ABHD4 [1] = target: T2, ABHD4 (Homo sapiens, UniProt Q8TB40); test: as above; assay type: biochemical; parameters: myc-his; expressed in transfected cells; host or cells: HEK293T, transient transfection, pcDNA3.1/myc-his; lysate used in vitro; settings: recombinant
T2 sequence (Q8TB40 1-342): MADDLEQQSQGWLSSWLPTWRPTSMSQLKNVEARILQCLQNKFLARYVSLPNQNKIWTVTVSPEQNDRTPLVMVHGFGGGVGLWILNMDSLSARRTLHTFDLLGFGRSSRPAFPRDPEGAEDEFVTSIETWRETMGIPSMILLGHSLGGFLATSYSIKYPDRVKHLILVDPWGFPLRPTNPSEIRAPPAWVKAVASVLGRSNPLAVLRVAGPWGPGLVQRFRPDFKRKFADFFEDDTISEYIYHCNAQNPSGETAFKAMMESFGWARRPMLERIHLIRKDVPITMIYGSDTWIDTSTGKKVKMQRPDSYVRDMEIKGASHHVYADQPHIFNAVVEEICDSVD
In short: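 Human ABHD4 was expressed by transient transfection in HEK293T cells, and lysates were combined with those expressing ABHD3. Inhibition was monitored by gel-based competitive activity-based protein profiling, with compound applied either in situ to cells or in vitro to lysates.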

LYPLA1/2 = test: Inhibition by gel-based competitive ABPP in vivo (FP-Rh probe); parameters: species or system mouse
Method: In this assay, test compounds were administered to mice. Mice were sacrificed, and their tissues harvested, homogenized, and the soluble fractions isolated, reacted with FP-Rh, and separated by SDS-PAGE as described above.
Protocol Summary: Purpose-bred 3-4 month old male C57BL6 laboratory mice were i.p. administered test compound (0.5-50 mg/kg in 18:1:1 saline:PEG-40-castor oil:EtOH vehicle solution, 10 μL/g mouse weight) or vehicle only. After 4 hours, mice were humanely sacrificed (anesthetized with isoflurane followed by cervical dislocation), and tissues (liver, kidney, brain) removed and snap frozen in liquid nitrogen before processing. Tissues were homogenized, and soluble proteome isolated by ultracentrifugation (100 k×g, 45 minutes) and protein concentration adjusted to 1 mg/mL in DPBS. An aliquot (50 μL) was reacted with FP-Rh (2 μM final concentration) for 30 minutes at 25° C. Reactions were quenched with 16 μL 4×SDS-PAGE loading buffer (reducing), separated by SDS-PAGE, and visualized by in-gel fluorescent scanning. The percentage activity remaining was determined by measuring the integrated optical density of test compound bands relative to vehicle bands. Note: Due to the overlapping nature of LYPLA1 and LYPLA2 bands, the proteins were quantified together.
The in vivo inhibitory activity of Compound 1 was assessed. For this experiment, mice were administered test compound (0.5-50 mg/kg, i.p.) or vehicle only. After four hours mice were sacrificed and their tissues removed, homogenized, and the soluble fractions isolated and labeled with FP-Rh followed by SDS-PAGE and fluorescent detection of FP-labeled SHs (see FIG. 3B).
(§1) Compound 26, Compound 34, and Compound 1 were administered across a dose range of 1-40 mg/kg to C57BL6 mice by intraperitoneal injection, and, after 4 hours, animals were sacrificed and tissues harvested for analysis by gel-based ABPP using the FP-Rh probe and the Compound 39 probe.

PPT1 = target: T3, PPT1 (Mus musculus, UniProt O88531); test: Inhibition by gel-based competitive ABPP in vivo (Compound 39 probe)
T3 construct: from tissue; host or cells: central and peripheral tissues (e.g. brain, testis) of C57BL6 mice
T3 sequence (O88531 28-306): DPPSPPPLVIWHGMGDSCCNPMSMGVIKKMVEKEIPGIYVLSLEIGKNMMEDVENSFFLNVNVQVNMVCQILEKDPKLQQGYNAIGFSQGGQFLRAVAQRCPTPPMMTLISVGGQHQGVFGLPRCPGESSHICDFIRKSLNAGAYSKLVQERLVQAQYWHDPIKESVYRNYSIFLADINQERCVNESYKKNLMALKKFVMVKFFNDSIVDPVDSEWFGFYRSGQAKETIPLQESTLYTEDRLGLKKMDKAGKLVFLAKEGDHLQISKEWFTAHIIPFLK
Method: as §1

ABHD4 [2] = target: T2, ABHD4; test: NAPE substrate hydrolysis assay, ABHD4-transfected HEK293T cell lysates; assay type: biochemical; settings: lysates from ABHD4-transfected HEK293T cells
Method: NAPE hydrolysis was measured by following the release of oleic acid from the NAPE substrate (1,2-dioleoyl-sn-glycero-3-phospho (N-arachidonoyl) ethanolamine).

[3] = transfected HEK293T lysates, read-out: mABHD3 in vitro potency (IC50)
[4] = transfected HEK293T lysates, read-out: hABHD4 in vitro potency (IC50)

- mPPT1 (in vivo), % @ 10 mg/kg (testis) (PPT1; 10 mg/kg, testis, mouse): 100% @ 10 mg/kg
- dose inhibiting PPT1 in vivo (PPT1; i.p., 4 h, Compound 39 probe): ≥ 10 mg/kg
SMILES: O=C(ON1C(=O)C2CN(C(=O)N3CCOCC3)CCN2C1=O)N1CCC(CCc2ccc(Cl)cc2)CC1 (centres unmarked) [Compound 1, 7-(morpholine-4-carbonyl)-1,3-dioxohexahydroimidazo[1,5-a]pyrazin-2(3H)-yl 4-(4-chloro-phenethyl)piperidine-1-carboxylate]
- blockade of LYPLA1 and LYPLA2 in vivo (LYPLA1/2; 5 mg/kg i.p., 4 h, FP-Rh probe): near-complete blockade of LYPLA1 and LYPLA2 in peripheral (e.g., liver, kidney), but not central (brain) tissues
- mLYPLA1/2 (in vivo), % @ 5 mg/kg (liver and kidney) (LYPLA1/2; 5 mg/kg, liver and kidney, mouse): 100% @
- inhibition of LYPLA1/2 in liver and kidney (LYPLA1/2; 0.5-50 mg/kg i.p., 4 h, liver and kidney): ~90%
- inhibition of LYPLA1/2 in the brain (LYPLA1/2; highest dose 50 mg/kg i.p., 4 h, brain): ~75%
- effect on NAPE hydrolysis activity of ABHD4 (ABHD4 [2]): neither Compound 26 nor Compound 1 altered

- IC50 (mABHD3; [3]): > 10000 nM
- IC50 (ABHD4 [2]): 500 nM
- IC50 (ABHD4 [1]; [4]): ~1000 nM
SMILES: O=C(ON1C(=O)C2CN(Cc3ccc(Oc4ccccc4)cc3)CCN2C1=O)N1CCOCC1 (centres unmarked) [Compound 34, 1,3-dioxo-7-(4-phenoxybenzyl)hexahydroimidazo[1,5-a]pyrazin-2(3H)-yl morpholine-4-carboxylate]

The next lines start with the compound.

SMILES: O=C(ON1C(=O)C2CN(Cc3ccc(Oc4ccccc4)cc3)CCN2C1=O)N1CCC(c2ccccc2)CC1 (centres unmarked) [Compound 38, 1,3-dioxo-7-(4-phenoxybenzyl)hexahydroimidazo[1,5-a]pyrazin-2(3H)-yl 4-phenylpiperidine-1-carboxylate]
- IC50 (mABHD3; combined HEK293T lysates, gel-based ABPP, read-out: ABHD3 IC50): 130 nM
- IC50 (mABHD3; [3]): 100 nM
- IC50 (ABHD4 [1]; combined HEK293T lysates, gel-based ABPP, read-out: ABHD4 IC50): 30 nM

SMILES: COc1ccc(N2CCN(C(=O)ON3C(=O)C4CN(CC5CCN(Cc6ccccc6)CC5)CCN4C3=O)CC2)cc1 (centres unmarked) [Compound 26, 7-((1-benzylpiperidin-4-yl)methyl)-1,3-dioxohexahydroimidazo[1,5-a]pyrazin-2(3H)-yl 4-(4-methoxyphenyl)piperazine-1-carboxylate]
- mLYPLA1/2 (in vivo), % @ 40 mg/kg (testis) (LYPLA1/2; 40 mg/kg, testis, mouse): 0% @
- mPPT1 (in vivo), % @ 5 mg/kg (testis) (PPT1; 5 mg/kg, testis, mouse): 100% @ 5 mg/kg
- blockade of PPT1 in vivo (PPT1; 1-5 mg/kg i.p., 4 h, central and peripheral tissues): near-complete blockade
- effect on NAPE hydrolysis activity of ABHD4 (ABHD4 [2]): neither Compound 26 nor Compound 1 altered

SMILES: COc1ccc(N2CCN(C(=O)ON3C(=O)C4CN(Cc5ccc(Oc6ccccc6)cc5)CCN4C3=O)CC2)cc1 (centres unmarked) [Compound 37, 1,3-dioxo-7-(4-phenoxybenzyl)hexahydroimidazo[1,5-a]pyrazin-2(3H)-yl 4-(4-methoxyphenyl)piperazine-1-carboxylate]
- IC50 (mABHD3; [3]): 7600 nM
- preference ABHD4 over ABHD3 (ABHD4 [1]; combined HEK293T lysates, gel-based ABPP): preferentially inhibited ABHD4 over ABHD3
- IC50 (ABHD4 [1]; [4]): 100 nM

Reference: US9981972B2, “N-hydroxy bicyclic hydantoin carbamates as tools for identification of serine hydrolase targets” (ABIDE THERAPEUTICS, INC., priority 2014, dated 2018)
